# Tested on: 361931-004-R-J1-PDC multicell spheroid viability
# Assay: Anticancer human tumor 361931-004-R-J1-PDC patient-derived colon adenocarcinoma cell line growth inhibition [PI3K]
# Conditions: for viability, T/C: stronger effect = lower value
# Excerpt: Combinatorial screen of targeted agents with the PI3K inhibitors inavolisib, alpelisib, duvelisib, and copanlisib in multi-cell type tumor spheroids
# A high-throughput screen of multi-cell type tumor spheroids was designed to identify active combinations of targeted small molecules and PI3K pathway inhibitors. Complex spheroids include a stromal component modeled by human endothelial cells (HUVEC) and fibroblasts modeled by human mesenchymal stem cells (MSCs). The concentration ranges selected for each drug and investigational agent were based upon clinically achievable concentrations if the clinical Cmax of the agent was known.
# Compounds. The drugs and investigational agents: inavolisib (NSC800729), alpelisib (NSC765974), duvelisib (NSC772469), copanlisib (NSC816437), ipatasertib (NSC767898), afuresertib (NSC778305), talazoparib (NSC767125), sapanisertib (NSC764658), selumetinib (NSC741078), tovorafenib (DAY101, NSC766906), vemurafenib (NSC761431), ravoxertinib (NSC781343), sotorasib (NSC818433), MRTX1133 (NSC 836407), abemaciclib (NSC 768073), palbociclib (NSC758247), venetoclax (NSC 766270), SY5609 (NSC837396), enzalutamide (NSC755605), and darolutamide (NSC825331), were obtained from the National Cancer Institute (NCI) Developmental Therapeutics Program Chemical Repository. The FDA-approved anticancer drug set is available from the NCI Developmental Therapeutics Program. […] The stock solutions were prepared in dimethyl sulfoxide (DMSO, Sigma-Aldrich, St. Louis, MO, cat. D2650) at 800-fold the tested concentration and stored at -70 degrees C prior to their use. All drugs and investigational agents were tested over a range starting from a high concentration at or near the clinical Cmax and decreasing in half-log increments. If the clinical Cmax for an agent had not been determined, the highest concentration tested was 10 microM.
# Cell Culture. All cells were maintained in an incubator at 37 degrees C and 5% CO2 with 95% humidity. The PDC lines were cultured according to standard operating procedures established by the NCI PDMR (https://pdmr.cancer.gov/sops/default.htm). All PDCs were thawed and cultured in Matrigel-coated flasks prepared with a working solution of 1X Ham's F-12 nutrient mix, without supplementation (Invitrogen, Waltham, MA, cat. 11765054), 100 U/mL penicillin-streptomycin (Invitrogen, cat. 15140122), and 2.5% Matrigel (Corning Inc., Corning, NY, cat. 354248) for the first three passages. The 354836-022-R-J1-PDC, 475296-252-R-J1-PDC, and 997726-040-R-J2-PDC lines were cultured in 6A media, which includes advanced DMEM/F-12 (Thermo Fisher Scientific, cat. 12634028), 10 mM HEPES (Thermo Fisher Scientific, cat. 15630080), 1X GlutaMAX supplement (Thermo Fisher Scientific, cat. 35050061), 0.1 mg/mL primocin (InvivoGen, San Diego, CA, cat. ant-pm-2), 10% defined fetal bovine serum, heat inactivated (HyClone Laboratories Inc., Logan, UT, cat. SH30070.03HI), 50% L-WRN conditioned media (ATCC, cat. CRL-3276), 1.25 mM N-Acetyl-L-cysteine (Sigma-Aldrich, cat. A9165), 10 mM nicotinamide (Sigma-Aldrich, cat. N0636), 1X B-27 supplement (Thermo Fisher Scientific, cat. 17504044), 1X N-2 supplement (Thermo Fisher Scientific, cat. 17502048), and 10 microM Y-27632 dihydrochloride (Tocris Bioscience, Bristol, United Kingdom, cat. 1254). The 624824-186-R-J2-PDC line was cultured in 6C/Colon 1B media, which includes all 6A media components plus 50 ng/mL human EGF recombinant protein (Thermo Fisher Scientific, cat. PHG0311). […]
# [1] = curve of first compound, second compound 0.0316 µM
# [2] = curve of first compound, second compound 0.1 µM
# [3] = curve of first compound, second compound 0.316 µM
# [4] = curve of first compound, second compound 1 µM
# 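Also: spheroids exposed to agents for seven days before readout.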
compound,measurement,setting,value
Cn1cnc2c(F)c(Nc3ccc(Br)cc3Cl)c(C(=O)NOCCO)cc21 + Cc1nc(NC(=O)N2CCCC2C(N)=O)sc1-c1ccnc(C(C)(C)C(F)(F)F)c1,IC50,[1],> 3 µM
same,IC50,[2],2.12 µM
same,IC50,[3],1.17 µM
same,IC50,[4],0.741 µM
same,IC50,"curve of first compound, second compound 3.16 µM",0.204 µM
same,IC50,"curve of first compound, second compound 10 µM",0.0309 µM
same,"viability, T/C","second compound 0.0316 µM, first compound 0.00949 µM",96.2%
same,"viability, T/C","second compound 0.0316 µM, first compound 0.03 µM",95.8%
same,"viability, T/C","second compound 0.0316 µM, first compound 0.0949 µM",82.2%
same,"viability, T/C","second compound 0.0316 µM, first compound 0.3 µM",78.8%
same,"viability, T/C","second compound 0.0316 µM, first compound 0.949 µM",75.8%
same,"viability, T/C","second compound 0.0316 µM, first compound 3 µM",48.3%
same,"viability, T/C","second compound 0.1 µM, first compound 0.00949 µM",107%
same,"viability, T/C","second compound 0.1 µM, first compound 0.03 µM",106%
same,"viability, T/C","second compound 0.1 µM, first compound 0.0949 µM",83.7%
same,"viability, T/C","second compound 0.1 µM, first compound 0.3 µM",84.5%
same,"viability, T/C","second compound 0.1 µM, first compound 0.949 µM",70.4%
same,"viability, T/C","second compound 0.1 µM, first compound 3 µM",41%
same,"viability, T/C","second compound 0.316 µM, first compound 0.00949 µM",103%
same,"viability, T/C","second compound 0.316 µM, first compound 0.03 µM",89.5%
same,"viability, T/C","second compound 0.316 µM, first compound 0.0949 µM",79.2%
same,"viability, T/C","second compound 0.316 µM, first compound 0.3 µM",74%
same,"viability, T/C","second compound 0.316 µM, first compound 0.949 µM",57.1%
same,"viability, T/C","second compound 0.316 µM, first compound 3 µM",29.7%
same,"viability, T/C","second compound 1 µM, first compound 0.00949 µM",95.9%
same,"viability, T/C","second compound 1 µM, first compound 0.03 µM",92.7%
same,"viability, T/C","second compound 1 µM, first compound 0.0949 µM",75.6%
same,"viability, T/C","second compound 1 µM, first compound 0.3 µM",68%
same,"viability, T/C","second compound 1 µM, first compound 0.949 µM",44.4%
same,"viability, T/C","second compound 1 µM, first compound 3 µM",27.5%
same,"viability, T/C","second compound 3.16 µM, first compound 0.00949 µM",82.7%
same,"viability, T/C","second compound 3.16 µM, first compound 0.03 µM",77.6%
same,"viability, T/C","second compound 3.16 µM, first compound 0.0949 µM",61.9%
same,"viability, T/C","second compound 3.16 µM, first compound 0.3 µM",40%
same,"viability, T/C","second compound 3.16 µM, first compound 0.949 µM",29.3%
same,"viability, T/C","second compound 3.16 µM, first compound 3 µM",6.45%
same,"viability, T/C","second compound 10 µM, first compound 0.00949 µM",59%
same,"viability, T/C","second compound 10 µM, first compound 0.03 µM",48.4%
same,"viability, T/C","second compound 10 µM, first compound 0.0949 µM",35%
same,"viability, T/C","second compound 10 µM, first compound 0.3 µM",12.5%
same,"viability, T/C","second compound 10 µM, first compound 0.949 µM",4.2%
same,"viability, T/C","second compound 10 µM, first compound 3 µM",1.47%
Cn1nccc1Nc1nccc(-c2ccn(C(CO)c3ccc(Cl)c(F)c3)c(=O)c2)n1 (stereo unspecified) + CC(Nc1ccc2c(c1)OCCn1cc(N3C(=O)OCC3C(F)F)nc1-2)C(N)=O,IC50,"curve of first compound, second compound 0.00316 µM",8.69 µM
same,IC50,"curve of first compound, second compound 0.01 µM",7.8 µM
same,IC50,[1],6.08 µM
same,IC50,[2],3.1 µM
same,IC50,[3],2.31 µM
same,IC50,[4],1.09 µM
same,"viability, T/C","second compound 0.00316 µM, first compound 0.0316 µM",103%
same,"viability, T/C","second compound 0.00316 µM, first compound 0.1 µM",96.7%
same,"viability, T/C","second compound 0.00316 µM, first compound 0.316 µM",92.7%
same,"viability, T/C","second compound 0.00316 µM, first compound 1 µM",88.8%
same,"viability, T/C","second compound 0.00316 µM, first compound 3.16 µM",76.6%
same,"viability, T/C","second compound 0.00316 µM, first compound 10 µM",45.6%
same,"viability, T/C","second compound 0.01 µM, first compound 0.0316 µM",120%
same,"viability, T/C","second compound 0.01 µM, first compound 0.1 µM",105%
same,"viability, T/C","second compound 0.01 µM, first compound 0.316 µM",93.9%
same,"viability, T/C","second compound 0.01 µM, first compound 1 µM",84.1%
same,"viability, T/C","second compound 0.01 µM, first compound 3.16 µM",76.5%
same,"viability, T/C","second compound 0.01 µM, first compound 10 µM",41.4%
same,"viability, T/C","second compound 0.0316 µM, first compound 0.0316 µM",106%
same,"viability, T/C","second compound 0.0316 µM, first compound 0.1 µM",93%
same,"viability, T/C","second compound 0.0316 µM, first compound 0.316 µM",85.8%
same,"viability, T/C","second compound 0.0316 µM, first compound 1 µM",82.5%
same,"viability, T/C","second compound 0.0316 µM, first compound 3.16 µM",70.6%
same,"viability, T/C","second compound 0.0316 µM, first compound 10 µM",36%
same,"viability, T/C","second compound 0.1 µM, first compound 0.0316 µM",97.6%
same,"viability, T/C","second compound 0.1 µM, first compound 0.1 µM",97.8%
same,"viability, T/C","second compound 0.1 µM, first compound 0.316 µM",89.3%
same,"viability, T/C","second compound 0.1 µM, first compound 1 µM",71.9%
same,"viability, T/C","second compound 0.1 µM, first compound 3.16 µM",50.5%
same,"viability, T/C","second compound 0.1 µM, first compound 10 µM",25.5%
same,"viability, T/C","second compound 0.316 µM, first compound 0.0316 µM",95.3%
same,"viability, T/C","second compound 0.316 µM, first compound 0.1 µM",86.5%
same,"viability, T/C","second compound 0.316 µM, first compound 0.316 µM",77.8%
same,"viability, T/C","second compound 0.316 µM, first compound 1 µM",72.9%
same,"viability, T/C","second compound 0.316 µM, first compound 3.16 µM",40.7%
same,"viability, T/C","second compound 0.316 µM, first compound 10 µM",13.2%
same,"viability, T/C","second compound 1 µM, first compound 0.0316 µM",69.8%
same,"viability, T/C","second compound 1 µM, first compound 0.1 µM",83.3%
same,"viability, T/C","second compound 1 µM, first compound 0.316 µM",70%
same,"viability, T/C","second compound 1 µM, first compound 1 µM",52.1%
same,"viability, T/C","second compound 1 µM, first compound 3.16 µM",22.8%
same,"viability, T/C","second compound 1 µM, first compound 10 µM",9.78%
COc1c(OCCCN2CCOCC2)ccc2c3n(c(=NC(=O)c4cnc(N)nc4)nc12)CCN3,"viability, T/C",compound 0.00316 µM,102% [middle of 8 runs]
same,"viability, T/C",compound 0.01 µM,98.4% [middle of 8 runs]
same,"viability, T/C",compound 0.0316 µM,95.4% [middle of 8 runs]
same,"viability, T/C",compound 0.1 µM,80.6% [middle of 8 runs]
same,"viability, T/C",compound 0.316 µM,55.9% [middle of 8 runs]
same,"viability, T/C",compound 1 µM,22.8% [middle of 8 runs]
same,IC50,"compound alone, run of 05/09/2023",393 nM [middle of 8 runs]
